In patent US7285556B2, “Thienopyrimidine-based inhibitors of the src family” (Board of Regents, The University of Texas Systems, priority 2000, dated 2007):
pIC50: −log10 of the molar value. Read-outs that look alike come from different tables or passages of the source.

Experiments:
Csk = target: T1, Csk (Homo sapiens, UniProt P41240); test: Csk tyrosine kinase activity, poly E4Y and 32P-ATP; assay type: biochemical; conditions: screening assay, 50 μg/ml poly E4Y, 0.2 mM 32P-ATP
T1 construct: GST (glutathione-S-transferase) (N); made in house; host or cells: E. coli (pGEX vector)
Procedure: (§1) Recombinant human Src was expressed using the baculovirus-insect cell system and purified as published (Budde et al., 1993 and 2000). Recombinant Csk and the FGF receptor (FGFr) were expressed as glutathione-S-transferase fusion proteins using the pGEX expression vector and E. coli, and purified as described (Sun & Budde, 1995).
(§2) The tyrosine kinase activity of Src, Csk and FGFr was determined using poly E4Y and ^32P-ATP. Briefly, enzymes were assayed in a reaction mixture consisting of 0.15 M EPPS-NaOH (pH 8.0) with 6 mM MgCl2, 0.2 mM γ^32P-ATP (0.2-0.4 mCi/μmol), 10% glycerol, 0.1% Triton X-100, and poly E4Y. Poly E4Y is a synthetic peptide whose phosphorylation is measured in this assay by the addition of the radioactively labeled phosphate from the ATP (Budde et al., 1995). […] When ATP was varied (0, 50, 100 and 250 μM), poly E4Y was kept constant at 150 μg/ml.

Recombinant human Src = target: T2, Recombinant human Src (Homo sapiens, UniProt P12931); test: Src tyrosine kinase activity, poly E4Y and 32P-ATP; assay type: biochemical
T2 construct: made in house; host or cells: baculovirus-insect cell system
T2 sequence (P12931 whole entry): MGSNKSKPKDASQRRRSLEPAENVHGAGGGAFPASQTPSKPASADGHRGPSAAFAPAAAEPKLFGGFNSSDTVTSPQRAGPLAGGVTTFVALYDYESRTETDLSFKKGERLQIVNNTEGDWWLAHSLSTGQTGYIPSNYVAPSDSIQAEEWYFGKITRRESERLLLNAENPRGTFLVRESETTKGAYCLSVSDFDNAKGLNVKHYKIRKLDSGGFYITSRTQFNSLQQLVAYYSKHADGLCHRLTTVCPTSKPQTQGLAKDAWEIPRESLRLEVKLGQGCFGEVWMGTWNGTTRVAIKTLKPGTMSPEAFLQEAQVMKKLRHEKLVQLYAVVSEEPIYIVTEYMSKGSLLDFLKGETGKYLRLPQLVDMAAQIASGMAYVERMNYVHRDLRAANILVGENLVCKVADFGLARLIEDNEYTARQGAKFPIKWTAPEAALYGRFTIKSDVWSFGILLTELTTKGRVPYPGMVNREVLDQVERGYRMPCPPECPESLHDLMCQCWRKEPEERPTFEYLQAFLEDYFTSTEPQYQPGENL
Procedure: as §1, §2

[1] = Table 2, read-out: Src IC50 (especially good inhibitors of Src)
[2] = read-out: IC50 (preferred compounds for treatment of Src family-related disease)

Structure (SMILES)	pIC50 (Csk)	pIC50 (Recombinant human Src; [1])	pIC50 (Recombinant human Src; [2])
Cc1csc2c(NN=Cc3ccc(F)cc3)ncnc12 [Compound 6, 4-Fluorobenzaldehyde(7-methylthieno[3,2-d]pyrimidin-4-yl)hydrazone]	< 3.76	–	–
Cc1csc2c(NN=Cc3ccc(O)cc3)ncnc12 [Compound 10, 4-Hydroxybenzaldehyde(7-methylthieno[3,2-d]pyrimidin-4-yl)hydrazone]	< 3.75	–	–
CC(=O)Nc1ccc(C=NNc2ncnc3c(C)csc23)cc1 [Compound 20, 4-Acetamidobenzaldehyde(7-methylthieno[3,2-d]pyrimidin-4-yl)hydrazone]	< 3.81	–	–
Cc1csc2c(NN=CC3CCCCC3)ncnc12 [Compound 25, Cyclohexanecarboxaldehyde(7-methylthieno[3,2-d]pyrimidin-4-yl)hydrazone]	< 3.74	–	–
Cc1csc2c(NN=Cc3ccccn3)ncnc12 [Compound 26, 2-Pyridinecarboxaldehyde(7-methylthieno[3,2-d]pyrimidin-4-yl)hydrazone]	< 3.73	–	–
Cc1csc2c(NN=Cc3ccc(C(=O)O)cc3)ncnc12 [Compound 28, 4-Carboxybenzaldehyde(7-methylthieno[3,2-d]pyrimidin-4-yl)hydrazone]	< 3.80	–	–
Cc1csc2c(NN=Cc3ncc[nH]3)ncnc12 [Compound 34, 1H-Imidazole-2-carboxaldehyde(7-methylthieno[3,2-d]pyrimidin-4-yl)hydrazone]	< 3.71	–	–
Cc1csc2c(NN=Cc3ccoc3)ncnc12 [Compound 38, 3-Furancarboxaldehyde(7-methylthieno[3,2-d]pyrimidin-4-yl)hydrazone]	< 3.71	–	–
Cc1csc2c(NN=Cc3nccs3)ncnc12 [Compound 40, 2-Thiazolecarboxaldehyde(7-methylthieno[3,2-d]pyrimidin-4-yl)hydrazone]	< 3.74	–	–
Cc1csc2c(NN=Cc3ccccc3Cl)ncnc12 [Compound 45, 2-Chlorobenzaldehyde(7-methylthieno[3,2-d]pyrimidin-4-yl)hydrazone]	< 3.78	–	–
Cc1csc2c(NN=Cc3ccc(Br)cc3)ncnc12 [Compound 56]	< 3.84	–	–
Cc1csc2c(NN=Cc3nccn3C)ncnc12 [Compound 101, 1-Methyl-1H-imidazole-2-carboxaldehyde(7-methylthieno[3,2-d]pyrimidin-4-yl)hydrazone]	< 3.74	–	–
Cc1ccsc1C=NNc1ncnc2c(C)csc12 [Compound 119, 3-Methyl-2-thiophenecarboxaldehyde(7-methylthieno[3,2-d]pyrimidin-4-yl)hydrazone]	< 3.76	–	–
CCCOc1ccc(C=NNc2ncnc3c(C)csc23)cc1 [Compound 134, 4-Propoxybenzaldehyde(7-methylthieno[3,2-d]pyrimidin-4-yl)hydrazone]	< 3.81	–	–
Cc1c(C(=O)O)sc2c(NN=Cc3ccc(C(=O)O)cc3)ncnc12 [Compound 466, 4-Carboxybenzaldehyde(6-carboxy-7-methylthieno[3,2-d]pyrimidin-4-yl)hydrazone]	–	≥ 5.70	> 5.70
Cc1c(C(=O)O)sc2c(NN=Cc3cccs3)ncnc12 [Compound 467, 2-Thiophenecarboxaldehyde(6-carboxy-7-methylthieno[3,2-d]pyrimidin-4-yl)hydrazone]	–	–	> 5.70
Cc1c(C(O)C2CCCCC2)sc2c(NN=Cc3cccs3)ncnc12 (stereo not drawn) [Compound 471, 2-Thiophenecarboxaldehyde(6-(1-cyclohexyl-1-hydroxy)methyl-7-methylthieno[3,2-d]pyrimidin-4-yl)hydrazone]	–	≥ 5.70	> 5.70
Cc1c(C(Cc2ccccc2)c2ccccc2)sc2c(NN=Cc3cccs3)ncnc12 (stereo not drawn) [Compound 474, 2-Thiophenecarboxaldehyde(6-(1-benzyl-1-phenyl)methyl-7-methylthieno[3,2-d]pyrimidin-4-yl)hydrazone]	–	≥ 5.70	> 5.70

Results, then the compound that gave them:

pIC50 (Csk)	pIC50 (Recombinant human Src; [1])	pIC50 (Recombinant human Src; [2])	Structure (SMILES)
< 3.78	–	–	Cc1sc2c(NN=Cc3ccc(F)cc3)ncnc2c1C [Compound 93, 4-Fluorobenzaldehyde(6,7-dimethylthieno[3,2-d]pyrimidin-4-yl)hydrazone]
–	≥ 5.70	> 5.70	COc1ccc(C=NNc2ncnc3c(C)c(C(O)c4ccsc4)sc23)cc1O (stereo not drawn) [Compound 464, 3-Hydroxy-4-methoxybenzaldehyde(6-(1-hydroxy-1-[3-thienyl])methyl-7-methylthieno[3,2-d]pyrimidin-4-yl)hydrazone]
–	≥ 5.70	> 5.70	Cc1c(C(=O)O)sc2c(NN=Cc3cccnc3)ncnc12 [Compound 465, 3-Pyridinecarboxaldehyde(6-carboxy-7-methylthieno[3,2-d]pyrimidin-4-yl)hydrazone]
–	≥ 5.70	> 5.70	COc1ccc(C=NNc2ncnc3c(C)c(C(=O)O)sc23)cc1O [Compound 468, 3-Hydroxy-4-methoxybenzaldehyde(6-carboxy-7-methylthieno[3,2-d]pyrimidin-4-yl)hydrazone]
–	≥ 5.70	> 5.70	Cc1c(C(O)C2CCCCC2)sc2c(NN=Cc3cccnc3)ncnc12 (stereo not drawn) [Compound 469, 3-Pyridinecarboxaldehyde(6-(1-cyclohexyl-1-hydroxy)methyl-7-methylthieno[3,2-d]pyrimidin-4-yl)hydrazone]
–	≥ 5.70	> 5.70	Cc1c(C(O)C2CCCCC2)sc2c(NN=Cc3ccc(C(=O)O)cc3)ncnc12 (stereo not drawn) [Compound 470, 4-Carboxybenzaldehyde(6-(1-cyclohexyl-1-hydroxy)methyl-7-methylthieno[3,2-d]pyrimidin-4-yl)hydrazone]
–	≥ 5.70	> 5.70	COc1ccc(C=NNc2ncnc3c(C)c(C(O)C4CCCCC4)sc23)cc1O (stereo not drawn) [Compound 472, 3-Hydroxy-4-methoxybenzaldehyde(6-(1-cyclohexyl-1-hydroxy)methyl-7-methylthieno[3,2-d]pyrimidin-4-yl)hydrazone]
–	≥ 5.70	> 5.70	Cc1c(C(Cc2ccccc2)c2ccccc2)sc2c(NN=Cc3cccnc3)ncnc12 (stereo not drawn) [Compound 473, 3-Pyridinecarboxaldehyde(6-(1-benzyl-1-phenyl)methyl-7-methylthieno[3,2-d]pyrimidin-4-yl)hydrazone]
–	≥ 5.70	> 5.70	Cc1c(CO)sc2c(NN=Cc3cccnc3)ncnc12 [Compound 476, 3-Pyridinecarboxaldehyde(6-hydroxymethyl-7-methylthieno[3,2-d]pyrimidin-4-yl)hydrazone]
–	≥ 5.70	> 5.70	Cc1c(CO)sc2c(NN=Cc3ccc(C(=O)O)cc3)ncnc12 [Compound 477, 4-Carboxybenzaldehyde(6-hydroxymethyl-7-methylthieno[3,2-d]pyrimidin-4-yl)hydrazone]
–	≥ 5.70	> 5.70	COc1ccc(C=NNc2ncnc3c(C)c(CO)sc23)cc1O [Compound 478, 3-Hydroxy-4-methoxybenzaldehyde(6-hydroxymethyl-7-methylthieno[3,2-d]pyrimidin-4-yl)hydrazone]
–	≥ 5.70	> 5.70	Cc1c(C(O)c2cccnc2)sc2c(NN=Cc3cccnc3)ncnc12 (stereo not drawn) [Compound 483, 3-Pyridinecarboxaldehyde(6-(1-hydroxy-1-[3-pyridyl])methyl-7-methylthieno[3,2-d]pyrimidin-4-yl)hydrazone]
–	≥ 5.70	> 5.70	Cc1c(C(O)c2cccnc2)sc2c(NN=Cc3ccc(C(=O)O)cc3)ncnc12 (stereo not drawn) [Compound 484, 4-Carboxybenzaldehyde(6-(1-hydroxy-1-[3-pyridyl])methyl-7-methylthieno[3,2-d]pyrimidin-4-yl)hydrazone]
–	≥ 5.70	> 5.70	Cc1c(C(O)c2cccnc2)sc2c(NN=Cc3cccs3)ncnc12 (stereo not drawn) [Compound 485, 2-Thiophenecarboxaldehyde(6-(1-hydroxy-1-[3-pyridyl])methyl-7-methylthieno[3,2-d]pyrimidin-4-yl)hydrazone]
–	≥ 5.70	> 5.70	COc1ccc(C=NNc2ncnc3c(C)c(C(O)c4cccnc4)sc23)cc1O (stereo not drawn) [Compound 486, 3-Hydroxy-4-methoxybenzaldehyde(6-(1-hydroxy-1-[3-pyridyl])methyl-7-methylthieno[3,2-d]pyrimidin-4-yl)hydrazone]
–	–	> 5.70	Cc1c(C(O)c2cccs2)sc2c(NN=Cc3cccnc3)ncnc12 (stereo not drawn) [Compound 487, 3-Pyridinecarboxaldehyde(6-(1-hydroxy-1-[2-thienyl])methyl-7-methylthieno[3,2-d]pyrimidin-4-yl)hydrazone]
–	≥ 5.70	> 5.70	Cc1c(C(O)c2cccs2)sc2c(NN=Cc3ccc(C(=O)O)cc3)ncnc12 (stereo not drawn) [Compound 488, 4-Carboxybenzaldehyde(6-(1-hydroxy-1-[2-thienyl])methyl-7-methylthieno[3,2-d]pyrimidin-4-yl)hydrazone]
–	≥ 5.70	> 5.70	Cc1c(C(O)c2cccs2)sc2c(NN=Cc3cccs3)ncnc12 (stereo not drawn) [Compound 489, 2-Thiophenecarboxaldehyde(6-(1-hydroxy-1-[2-thienyl])methyl-7-methylthieno[3,2-d]pyrimidin-4-yl)hydrazone]
–	≥ 5.70	> 5.70	COc1ccc(C=NNc2ncnc3c(C)c(C(O)c4cccs4)sc23)cc1O (stereo not drawn) [Compound 490, 3-Hydroxy-4-methoxybenzaldehyde(6-(1-hydroxy-1-[2-thienyl])methyl-7-methylthieno[3,2-d]pyrimidin-4-yl)hydrazone]
